According to US12508261B2, “Methods of treating depression with vortioxetine” (Rundle Research LLC, priority 2017, dated 2025):

What was measured:
[1] = TRINTELLIX label; cited from earlier work
[2] = Regression model estimating vortioxetine half-life and MAOI delay from total body fat and steady-state plasma concentration (CYP2D6 metabolizer status); set-up: species or system human
From the text: Data obtained in the study described in Example 1 and Table 1 provided the basis for a regression model (having a r^2 value of 88%) based on total body fat and steady-state vortioxetine plasma concentration. Because the steady-state plasma concentration of vortioxetine correlates with metabolizer status, this regression provides a means of estimating vortioxetine half-life for patients based on total body fat and CYP2D6 metabolizer status.
Alternatively, the delay period can be calculated based on any particular values in Table 1, or any statistical parameter for characterizing the subject population of Table, such as the arithmetic mean, geometric mean, maximum, minimum, maximum or minimum 90% confidence interval, etc. of the half-life (e.g., 7.5×the average t1/2, 7.5×the maximum t1/2, and so forth, or the 21 day equivalency to a normal weight extensive metabolizer subject, based on the average t1/2 or the maximum t1/2 or any of the aforementioned statistically parameters).

[3] = Extensive(a) average of obese steady-state concentration for extensive metabolizers, total fat 60 kg
[4] = Extensive(a) average of obese steady-state concentration for extensive metabolizers, total fat 70 kg
[5] = Extensive(a) average of obese steady-state concentration for extensive metabolizers, total fat 80 kg
[6] = Extensive(a) average of obese steady-state concentration for extensive metabolizers, total fat 90 kg
[7] = Extensive(a) average of obese steady-state concentration for extensive metabolizers, total fat 100 kg
[8] = Extensive(b) high of extensive metabolizers, total fat 40 kg
[9] = Extensive(b) high of extensive metabolizers, total fat 50 kg
[10] = Extensive(b) high of extensive metabolizers, total fat 60 kg
[11] = Extensive(b) high of extensive metabolizers, total fat 70 kg
[12] = Extensive(b) high of extensive metabolizers, total fat 80 kg
[13] = Extensive(b) high of extensive metabolizers, total fat 90 kg
[14] = Extensive(b) high of extensive metabolizers, total fat 100 kg
[15] = IM(c) average of intermediate metabolizer values, total fat 10 kg
[16] = IM(c) average of intermediate metabolizer values, total fat 20 kg
[17] = IM(c) average of intermediate metabolizer values, total fat 30 kg
[18] = IM(c) average of intermediate metabolizer values, total fat 40 kg
[19] = IM(c) average of intermediate metabolizer values, total fat 50 kg
[20] = IM(c) average of intermediate metabolizer values, total fat 60 kg
[21] = IM(c) average of intermediate metabolizer values, total fat 70 kg
[22] = IM(c) average of intermediate metabolizer values, total fat 80 kg
[23] = IM(c) average of intermediate metabolizer values, total fat 90 kg
[24] = IM(c) average of intermediate metabolizer values, total fat 100 kg
[25] = IM(d) high of IM values, total fat 10 kg
[26] = IM(d) high of IM values, total fat 20 kg
[27] = IM(d) high of IM values, total fat 30 kg
[28] = IM(d) high of IM values, total fat 40 kg
[29] = IM(d) high of IM values, total fat 50 kg
[30] = IM(d) high of IM values, total fat 60 kg
[31] = IM(d) high of IM values, total fat 70 kg
[32] = IM(d) high of IM values, total fat 80 kg
[33] = IM(d) high of IM values, total fat 90 kg
[34] = IM(d) high of IM values, total fat 100 kg
[35] = PM(e) estimated poor metabolizer values, total fat 10 kg
[36] = PM(e) estimated poor metabolizer values, total fat 20 kg
[37] = PM(e) estimated poor metabolizer values, total fat 30 kg
[38] = PM(e) estimated poor metabolizer values, total fat 40 kg
[39] = PM(e) estimated poor metabolizer values, total fat 50 kg
[40] = PM(e) estimated poor metabolizer values, total fat 60 kg
[41] = PM(e) estimated poor metabolizer values, total fat 70 kg
[42] = PM(e) estimated poor metabolizer values, total fat 80 kg
[43] = PM(e) estimated poor metabolizer values, total fat 90 kg
[44] = PM(e) estimated poor metabolizer values, total fat 100 kg

Half-Life Estimates ([2]; Extensive(a) average of obese steady-state concentration for extensive metabolizers, total fat 10 kg): 21 h
Half-Life Estimates ([2]; Extensive(a) average of obese steady-state concentration for extensive metabolizers, total fat 20 kg): 32 h
Half-Life Estimates ([2]; Extensive(a) average of obese steady-state concentration for extensive metabolizers, total fat 30 kg): 42 h
Half-Life Estimates ([2]; Extensive(a) average of obese steady-state concentration for extensive metabolizers, total fat 40 kg): 52 h
Half-Life Estimates ([2]; Extensive(a) average of obese steady-state concentration for extensive metabolizers, total fat 50 kg): 62 h
Half-Life Estimates [2, 3]: 73 h
Weeks of Delay (7.5 X half-life) [2, 3]: 3.2 Weeks
Half-Life Estimates [2, 4]: 83 h
Weeks of Delay (7.5 X half-life) [2, 4]: 3.7 Weeks
Half-Life Estimates [2, 5]: 93 h
Weeks of Delay (7.5 X half-life) [2, 5]: 4.2 Weeks
Half-Life Estimates [2, 6]: 103 h
Weeks of Delay (7.5 X half-life) [2, 6]: 4.6 Weeks
Half-Life Estimates [2, 7]: 114 h
Weeks of Delay (7.5 X half-life) [2, 7]: 5.1 Weeks
Half-Life Estimates ([2]; Extensive(b) high of extensive metabolizers, total fat 10 kg): 39 h
Half-Life Estimates ([2]; Extensive(b) high of extensive metabolizers, total fat 20 kg): 49 h
Half-Life Estimates ([2]; Extensive(b) high of extensive metabolizers, total fat 30 kg): 59 h
Half-Life Estimates [2, 8]: 70 h
Weeks of Delay (7.5 X half-life) [2, 8]: 3.1 Weeks
Half-Life Estimates [2, 9]: 80 h
Weeks of Delay (7.5 X half-life) [2, 9]: 3.6 Weeks
Half-Life Estimates [2, 10]: 90 h
Weeks of Delay (7.5 X half-life) [2, 10]: 4.0 Weeks
Half-Life Estimates [2, 11]: 100 h
Weeks of Delay (7.5 X half-life) [2, 11]: 4.5 Weeks
Half-Life Estimates [2, 12]: 111 h
Weeks of Delay (7.5 X half-life) [2, 12]: 4.9 Weeks
Half-Life Estimates [2, 13]: 121 h
Weeks of Delay (7.5 X half-life) [2, 13]: 5.4 Weeks
Half-Life Estimates [2, 14]: 131 h
Weeks of Delay (7.5 X half-life) [2, 14]: 5.9 Weeks
Half-Life Estimates [2, 15]: 102 h
Weeks of Delay (7.5 X half-life) [2, 15]: 4.6 Weeks
Half-Life Estimates [2, 16]: 112 h
Weeks of Delay (7.5 X half-life) [2, 16]: 5.0 Weeks
Half-Life Estimates [2, 17]: 123 h
Weeks of Delay (7.5 X half-life) [2, 17]: 5.5 Weeks
Half-Life Estimates [2, 18]: 133 h
Weeks of Delay (7.5 X half-life) [2, 18]: 5.9 Weeks
Half-Life Estimates [2, 19]: 143 h
Weeks of Delay (7.5 X half-life) [2, 19]: 6.4 Weeks
Half-Life Estimates [2, 20]: 153 h
Weeks of Delay (7.5 X half-life) [2, 20]: 6.8 Weeks
Half-Life Estimates [2, 21]: 164 h
Weeks of Delay (7.5 X half-life) [2, 21]: 7.3 Weeks
Half-Life Estimates [2, 22]: 174 h
Weeks of Delay (7.5 X half-life) [2, 22]: 7.8 Weeks
Half-Life Estimates [2, 23]: 184 h
Weeks of Delay (7.5 X half-life) [2, 23]: 8.2 Weeks
Half-Life Estimates [2, 24]: 194 h
Weeks of Delay (7.5 X half-life) [2, 24]: 8.7 Weeks
Half-Life Estimates [2, 25]: 116 h
Weeks of Delay (7.5 X half-life) [2, 25]: 5.2 Weeks
Weeks of Delay (21 day equivalency to Normal, 66 hr half-life) [2, 25]: 5.3 Weeks
Half-Life Estimates [2, 26]: 126 h
Weeks of Delay (7.5 X half-life) [2, 26]: 5.6 Weeks
Weeks of Delay (21 day equivalency to Normal, 66 hr half-life) [2, 26]: 5.7 Weeks
Half-Life Estimates [2, 27]: 136 h
Weeks of Delay (7.5 X half-life) [2, 27]: 6.1 Weeks
Weeks of Delay (21 day equivalency to Normal, 66 hr half-life) [2, 27]: 6.2 Weeks
Half-Life Estimates [2, 28]: 147 h
Weeks of Delay (7.5 X half-life) [2, 28]: 6.5 Weeks
Weeks of Delay (21 day equivalency to Normal, 66 hr half-life) [2, 28]: 6.7 Weeks
Half-Life Estimates [2, 29]: 157 h
Weeks of Delay (7.5 X half-life) [2, 29]: 7.0 Weeks
Weeks of Delay (21 day equivalency to Normal, 66 hr half-life) [2, 29]: 7.1 Weeks
Half-Life Estimates [2, 30]: 167 h
Weeks of Delay (7.5 X half-life) [2, 30]: 7.5 Weeks
Weeks of Delay (21 day equivalency to Normal, 66 hr half-life) [2, 30]: 7.6 Weeks
Half-Life Estimates [2, 31]: 177 h
Weeks of Delay (7.5 X half-life) [2, 31]: 7.9 Weeks
Half-Life Estimates [2, 32]: 188 h
Weeks of Delay (7.5 X half-life) [2, 32]: 8.4 Weeks
Half-Life Estimates [2, 33]: 198 h
Weeks of Delay (7.5 X half-life) [2, 33]: 8.8 Weeks
Weeks of Delay (21 day equivalency to Normal, 66 hr half-life) [2, 33]: 9.0 Weeks
Half-Life Estimates [2, 34]: 208 h
Weeks of Delay (7.5 X half-life) [2, 34]: 9.3 Weeks
Weeks of Delay (21 day equivalency to Normal, 66 hr half-life) [2, 34]: 9.5 Weeks
Half-Life Estimates [2, 35]: 215 h
Weeks of Delay (7.5 X half-life) [2, 35]: 9.6 Weeks
Half-Life Estimates [2, 36]: 225 h
Weeks of Delay (7.5 X half-life) [2, 36]: 10.0 Weeks
Half-Life Estimates [2, 37]: 235 h
Weeks of Delay (7.5 X half-life) [2, 37]: 10.5 Weeks
Half-Life Estimates [2, 38]: 245 h
Weeks of Delay (7.5 X half-life) [2, 38]: 11.0 Weeks
Half-Life Estimates [2, 39]: 256 h
Weeks of Delay (7.5 X half-life) [2, 39]: 11.4 Weeks
Half-Life Estimates [2, 40]: 266 h
Weeks of Delay (7.5 X half-life) [2, 40]: 11.9 Weeks
Half-Life Estimates [2, 41]: 276 h
Weeks of Delay (7.5 X half-life) [2, 41]: 12.3 Weeks
Half-Life Estimates [2, 42]: 286 h
Weeks of Delay (7.5 X half-life) [2, 42]: 12.8 Weeks
Half-Life Estimates [2, 43]: 297 h
Weeks of Delay (7.5 X half-life) [2, 43]: 13.2 Weeks
Half-Life Estimates [2, 44]: 307 h
Weeks of Delay (7.5 X half-life) [2, 44]: 13.7 Weeks
Compound: Cc1ccc(Sc2ccccc2N2CCNCC2)c(C)c1 [vortioxetine]
time to achieve steady-state plasma concentrations [1]: ≤ 2 weeks
